Assays:
[1] = system: HSSYII synovial sarcoma cell line; assay: Global proteomics in HSSYII cells; format: cell-based, human; settings: 100 nM, 4 hours
Protocol: Global protein expression was performed in Yamato-SS and HSSYII synovial sarcoma cell lines after 4-hour treatment with Compound 1 (100 nM). The Yamato-SS cell line was provided by the RIKEN BRC through the National BioResource Project of the MEXT/AMED, Japan (cat #RCB3577), and the HS-SY-II cell line was provided by the RIKEN BRC through the National BioResource Project of the MEXT/AMED, Japan (cat #RCB2231).
Both Yamato-SS and HSSYII cell lines were treated with Compound 1 at 100 nM for 4 hours and analyzed by multiplexed quantitative proteomics. The x-axis illustrates the totality of the proteomics data and is labeled as fold change (FC) of Compound 1 vs vehicle in a Log 2 transformation scale. The statistical significance (T-test of treated vs. DMSO with Benjamini-Hochberg correction applied) of the observed changes is shown in the y-axis as negative Log 10 of the P-value. The horizontal dashed line marks the statistical significance (P-value ≤0.001) and the vertical line marks fold change ≥2.

[2] = Crystallization at room temperature by slow evaporation; format: physicochemical
Protocol: Based on approximate solubility results, about 10 mg of Compound 1 free form Pattern E was dissolved in suitable amount of solvents. Obtained suspensions or solutions were centrifuged. […] Solid residues were examined for their polymorphic form.

[3] = Crystallization from hot saturated solutions by fast cooling; format: physicochemical; settings: for Comments / XRPD: hot saturated solution
Protocol: Samples with no precipitates were put in −20° C. freezer for crystallization. Precipitates were collected by filtration. The solid part (wet cake) were investigated by XRPD.

Q: What does the source list for `COc1cc(-c2cn(C)c(=O)c(C)c2C)cc(OC)c1CN1CC[C@H](N2CCN(c3ccc(N[C@H]4CCC(=O)NC4=O)cc3F)CC2)C(F)(F)C1` [Compound 1, (S)-3-((4-(4-((S)-1-(2,6-dimethoxy-4-(1,4,5-trimethyl-6-oxo-1,6-dihydropyridin-3-yl)benzyl)-3,3-difluoropiperidin-4-yl)piperazin-1-yl)-3-fluorophenyl)amino)-piperidine-2,6-dione]?
A: BRD9 protein level decrease vs DMSO control [1]: 66.7%; Emax at 0.1 µM ([1]; Homo sapiens, read-out: BRD9 Emax): 33.3%; Comments ([2]; slow evaporation at room temperature, 1,4-dioxane): Gel-like sample; Comments ([2]; slow evaporation at room temperature, 2-MeTHF): Gel-like sample; XRPD ([2]; slow evaporation at room temperature, Acetonitrile): Pattern A; Comments ([2]; slow evaporation at room temperature, Ethanol): Gel-like sample; XRPD ([2]; slow evaporation at room temperature, Ethyl acetate): Pattern F; Comments ([2]; slow evaporation at room temperature, THF): Jelly-like sample; Comments: form after seeding ([3]; 2-MeTHF, add Pattern G as seeds, slurry for 5 days): Pattern G; Comments ([3]; 2-MeTHF): Clear solution; XRPD ([3]; Acetone): Pattern B; XRPD ([3]; Ethanol): Pattern F; XRPD ([3]; Ethyl acetate): Pattern F; Comments ([3]; Methanol): Clear solution

Source: patent US20240245677A1, “SELECTED COMPOUNDS FOR TARGETED DEGRADATION OF BRD9” (C4 THERAPEUTICS, INC., priority 2021, published 2024)
